Reference: patent publication US12515027B2, “Subcutaneous biodegradable reservoir device” (Research Triangle Institute, priority 2018, dated 2026)
Values joined by “and” are separate entries in the source; they are usually repeats but may differ in a detail not shown here. Equal values may be shown once. Where a name gives a salt, the structure may show the parent alone.

Assays:
[1] = Solubility of active agents in excipients (saturated solutions, UPLC/UV)
Experimental: Over a 24-hour period, the solutions were mixed periodically and returned to the water bath. After approximately 72 hours, the solutions were removed from the water bath and appearance recorded for each of the saturated solutions. […] The supernatants were prepared for analysis by UPLC. Triplicate weighed aliquots were prepared from the collected supernatants and analyzed for assay using a UPLC/UV method. The analysis was performed using a Waters BEH C18 column (2.1 mm×50 mm, 1.7 μm) under gradient, reversed phase conditions with detection at 260 nm. The saturated solutions were quantitated by linear regression analysis against a 5-point calibration curve.
Testing using the same methodology was performed for EFdA, LNG, and ENG using various excipients.

[2] = In vitro release from PCL reservoir implants in PBS pH 7.4 at 37 °C (UV-Vis); type: physicochemical; conditions: for release rate of TAF: first 30 days, normalized to 314 mm^2; for release rate of TAF from implant: summary b130; for TAF dosage (daily release rate): release over 35 days, FIG. 24; for Release Rates of TAF, Gamma-Irradiated: 18-24 kGy
Experimental: The implants were incubated in 1×PBS (pH 7.4) at 37° C. Drug quantity released in media was measured via UV-Vis three times per week during which the implants were transferred to fresh buffer to maintain sink conditions. Drug concentrations were determined by correlating UV absorbance values to a standard curve. Standard curves involved measuring peak absorbance values as a function of drug concentrations diluted by half from bulk solutions. Peak absorbance values were determined by scanning the dilute drug solutions from 230 to 700 nm at a step size of 1 nm and assessing the maximum UV absorbance value.
Testing was performed to evaluate release kinetics of varying formulations of active agent and excipient. In particular, the release mechanism and release profiles for TAF formulated with varying mass quantities of castor oil from extruded PCL tubes was evaluated. Heat extruded PCL devices were fabricated (2.5 mm×40 mm) using 80 kDa Sigma grade PCL. […] For the in vitro release studies, devices were incubated in 40 mL of phosphate buffered saline (PBS) at pH 7.4 in a shaking incubator at 37° C. The implants were transferred to fresh buffer three times per week to maintain sink conditions.
Testing was performed to evaluate the in vitro release profile for an exemplary segmented device. In-vitro conditions included a simulated physiological media of a salt solution at pH between 6.5 and 7.5 at a temperature of 37° C. The exemplary device was engineered to release two APIs simultaneously, both at zero-order release kinetics. The device was fabricated with a segmented architecture that contained LNG formulated with ethyl oleate at a 1:4 ratio and EFdA formulated with castor oil at a 1:1 ratio and housed in separate compartments within a single implant design. Different segment lengths, polymer membrane thicknesses and polymer properties were tested.
In vitro release characterization involved incubation of the implants in 40 mL 1× phosphate buffered saline (PBS) (pH 7.4) at 37° C. and placed on an orbital shaker. […] The release buffer was sampled three times per week during which the devices were transferred to 40 mL of fresh buffer to maintain sink conditions. TAF quantity released in each PBS buffer during the time interval was calculated and cumulative mass of drug release as a function of time was determined.

[3] = Chromatographic purity (stability) of formulation inside implant after in-vitro exposure (UPLC/UV); type: physicochemical; conditions: after 180 days in simulated physiological conditions
[4] = subcutaneous implant, up to 90 days
Experimental: Testing was performed to evaluate the in vivo release profile of an exemplary device.

[5] = subdermal silicone implant with PVA-coated channels, beagle dogs; cited from earlier work

CC(C)OC(=O)[C@H](C)N[P@](=O)(CO[C@H](C)Cn1cnc2c(N)ncnc21)Oc1ccccc1 [TAF, Tenofovir Alafenamide Fumarate]
solubility at 72 h ([1]; 37 °C, oil or lipid, thermodynamic from solid): 3900 µg/mL | solubility of TAF within four different excipients ([1]; sesame oil, castor oil, oleic acid, PEG 600, FIG. 8): most soluble in oleic acid and PEG600 | release rate of TAF ([2]; 2:1 TAF:castor oil, 45 μm wall): 0.91 ± 0.23 mg/day | release rate of TAF ([2]; 2:1 TAF:castor oil, 70 μm wall): 0.61 ± 0.09 mg/day | release rate of TAF ([2]; 2:1 TAF:castor oil, 100 μm wall): 0.29 ± 0.05 mg/day | release rate of TAF ([2]; 2:1 TAF:castor oil, 150 μm wall): 0.19 ± 0.04 mg/day | release rate of TAF ([2]; 2:1 TAF:castor oil, 200 μm wall): 0.15 ± 0.03 mg/day | initial release rate ([2]; 4:1 TAF-castor oil formulation): 0.2 mg/day | initial release rate ([2]; 5:1 TAF-castor oil formulation): 0.4 mg/day | release rate of TAF from implant ([2]; 45 μm PCL wall): approximately 0.8 mg/day | TAF dosage (daily release rate) ([2]; 45 μm wall thickness, 2:1 TAF:castor oil): 0.78 ± 0.03 mg/day | release rate of TAF from implant ([2]; 200 μm PCL wall): ~0.2 mg/day | TAF dosage (daily release rate) ([2]; 200 μm wall thickness, 2:1 TAF:castor oil): 0.13 ± 0.01 mg/day | Release Rates of TAF, Non-Irradiated ([2]; PC-12, 70 μm wall): 0.37 ± 0.05 mg/day | Release Rates of TAF, Gamma-Irradiated ([2]; PC-12, 70 μm wall): 0.30 ± 0.03 mg/day | Release Rates of TAF, Non-Irradiated ([2]; PC-12, 100 μm wall): 0.20 ± 0.03 mg/day | Release Rates of TAF, Gamma-Irradiated ([2]; PC-12, 100 μm wall): 0.20 ± 0.02 mg/day | Release Rates of TAF, Non-Irradiated ([2]; Sigma-PCL, 70 μm wall): 0.62 ± 0.09 mg/day | Release Rates of TAF, Gamma-Irradiated ([2]; Sigma-PCL, 70 μm wall): 0.54 ± 0.06 mg/day | Release Rates of TAF, Non-Irradiated ([2]; Sigma-PCL, 100 μm wall): 0.29 ± 0.05 mg/day | Release Rates of TAF, Gamma-Irradiated ([2]; Sigma-PCL, 100 μm wall): 0.32 ± 0.03 mg/day | Measured release rates for full sized device ([2]; TAF castor oil devices (1:1, 2:1, 3:1), PCL wall 70 μm, 2.5 mm x 40 mm): 0.7 mg/day and 0.7 ± 0.08 mg/day | Measured release rates for full sized device ([2]; TAF castor oil devices, PCL wall 100 μm): 0.38 ± 0.04 mg/day | Measured release rates for full sized device ([2]; TAF castor oil devices, PCL wall 200 μm): 0.22 ± 0.01 mg/day | J, drug released from the membrane per unit area per unit time ([2]; TAF castor oil, 70 μm, surface area 314 mm^2): 0.002 mg/day/mm^2 | start of depletion ([2]; TAF:castor oil 1:1, 70 μm, 2.5 mm x 40 mm): 76 days | start of depletion ([2]; TAF:castor oil 2:1, 70 μm, 2.5 mm x 40 mm): 83 days | TAF remaining within the implant ([2]; after 180 days in vitro, payload approximately 115 mg): approximately 68 mg | sustained release rate of TAF ([2]; over the course of 180 days in vitro, 2:1 TAF:castor oil, 100 μm wall, 2.5 mm OD x 40 mm): 0.25 ± 0.03 mg/day | duration of zero-order release from segmented implants ([2]; segmented implants of TAF with LNG or ENG): 50 days | chromatographic purity of TAF remaining in implant [3]: 89.2±0.8% | reactivity at the site of the implant [4]: minimal reactivity | duration of drug delivery [5]: 40 days
